Reference: patent US9499486B2, “Kinase inhibitor” (RESPIVERT LIMITED, priority 2014, dated 2016)

Test system: PBMCs
Experiment: Cell mitosis assay (assay g)
Assay type: cell-based, human
Protocol: Peripheral blood mononucleocytes (PBMCs) from healthy subjects are separated from whole blood (Quintiles, London, UK) using a density gradient (Histopaque-1077, Sigma-Aldrich, Poole, UK). The PBMCs (3 million cells per sample) are subsequently treated with 2% PHA (phytohaemagglutinin, Sigma-Aldrich, Poole, UK) for 48 hr, followed by a 20 hr exposure to varying concentrations of test compounds. At 2 hr before collection, PBMCs are treated with demecolcine (0.1 μg/mL; Invitrogen, Paisley, UK) to arrest cells in metaphase. To observe mitotic cells, PBMCs are permeabilised and fixed by adding Intraprep (50 μL; Beckman Coulter, France), and stained with anti-phospho-histone 3 (0.26 ng/L; #9701; Cell Signalling, Danvers, Mass.) and propidium iodide (1 mg/mL; Sigma-Aldrich, Poole, UK) as previously described (Muehlbauer P. A. and Schuler M. J., Mutation Research, 2003, 537:117-130). Fluorescence is observed using an ATTUNE flow cytometer (Invitrogen, Paisley, UK), gating for lymphocytes.

SMILES: COc1cc(Nc2cc(Oc3ccc(NC(=O)Nc4cc(C(C)(C)C)cc(NS(C)(=O)=O)c4OC)c4ccccc34)ccn2)ccc1C(=O)O [Example 1, 4-((4-((4-(3-(5-(tert-Butyl)-2-methoxy-3-(methylsulfonamido)phenyl)ureido)naphthalen-1-yl)oxy)pyridin-2-yl)amino)-2-methoxybenzoic acid]
- impact on cell division (mitosis) in PBMCs compared with Reference Compound: markedly less active than the Reference Compound
